B1: IFN-γ: interferon-γ, major inducer of MHC class I components (protein, UniProt P01579 24-161, looked up)
Interferon gamma: QDPYVKEAENLKKYFNAGHSDVADNGTLFLGILKNWKEESDRKIMQSQIVSFYFKLFKNFKDDQSIQKSVETIKEDMNVKFFNSNKKKRDDFEKLTNYSVTDLNVQRKAIHELIQVMAELSPAAKTGKRKRSQMLFRG

Assays:
MC38 cells [1] = test: Co-culture assay for tumor-killing activity, peptide-pulsed target cells; assay type: cell-based, murine; conditions: for tumor-killing responses, individual epitopes: MC38 pulsed with individual peptide, hexavalent peptide-reactive effector cells
Excerpt: [FIG. 6-1] FIG. 6. Hexavalent vaccination of inducible splice-neoepitopes promotes Compound 1-induced cancer immune responses. A: A schema for the cancer-killing assay. B and C: Representative flow cytometric images showing tumor-killing activity mediated by antigen-elicited effector cells (B) and their quantitative data of annexin V^+/CFSE^+ frequency (C) are indicated (n=3/group). Hexavalent (Kifc1^−, Nf1^−, Acbd4^−, Rfx7^−, Qpct1^−, and Nup153-derived) peptides or an irrelevant Trp2180-188 peptide was used to elicit antigen-reactive effector cells. CFSE-labeled MC38 cells were stimulated with either 0.1% DMSO or hexavalent peptides for 2 hours and then co-cultured with effector cells for 24 hours. Annexin V was used for monitoring early and late apoptotic cell frequencies. *** represents p<0.001. D: For the nontargeting control (NC) or B2M KO clone (n=3/group), annexin V^+/CFSE^+ frequencies in the same experimental condition as (C) are shown. ** represents p<0.01.
[FIG. 7] A: In vitro tumor-killing activity mediated by individual splice-neoantigens. Quantitative data of annexin V^+/CFSE^+ frequencies are shown (n=3/group). CFSE-labeled MC38 cells, with or without IFN-pretreatment, were further stimulated with either 0.1% DMSO, hexavalent peptides, or individual peptides for 2 hours, and then co-cultured with hexavalent peptide-reactive effector cells for 24 hours. Data are shown as the mean±SEM. Experiments were performed at least twice. B: Tumor suppressive effect by hexavalent or individual splice-neoantigen vaccination. Tumor volumes of mice on day 23 are shown. Mice were subcutaneously vaccinated with 100 μg of peptide and 50 μg of Poly(I:C) on days 11 and 18. In groups indicated by (−), 5% DMSO was injected instead of peptide. Compound 1 ([…]) or vehicle control (0.1% DMSO) was intratumorally given once daily. Data are shown as the mean±SEM (n=7/group). Experiments were performed once.
Splenocytes were prepared from mice vaccinated with either hexavalent splice-neoantigens or an irrelevant Tpr2180-188 antigen, and then further stimulated with BMDCs pulsed with the same antigen(s) in the presence of IL-2. Tumor-killing activity was quantified based on the frequency of Annexin V^+/CFSE^+24 hours after co-culture with antigen(s)-elicited effector cells and CFSE-prelabeled target cells. […] As a result, this tumor-killing activity was absent for the B2m KO MC38 cells (FIG. 6-1D).
Splenocytes were prepared from peptide(s)-vaccinated mice inoculated with Poly(I:C) on day 14, as described in the section of “ELISpot assay”. To further elicit antigen-specific CD8^+ T cells, freshly isolated splenocytes were co-cultured with peptide(s)-pulsed bone marrow-derived dendritic cells (BMDCs) in the presence of 10 ng/ml IL-2 (Peprotech) for another 7 days. Culture was maintained by replacing half of the medium every 2 or 3 days. Splenocytes stimulated with BMDCs, as effector cells, were then co-cultured with target cells at an effector target ratio of 5:1 for 24 hours to examine their lytic activity. For the preparation of target cells, in the previous day of co-culture with effector cells, cells were labeled with […] carboxyfluorescein diacetate succinimidyl ester (CFSE; Dojindo) for 10 minutes, and incubated with FBS for additional 10 minutes to stop the labeling reaction. After washing with medium twice, cells were cultured overnight in the presence of 10 ng/ml IFN-γ. The next day, target cells were pulsed with 10 ng/ml peptide(s) for 2 hours prior to co-culture or treated with Compound 1 in the presence of effector cells. After 24 hours of co-culture, cells were stained with annexin V (Biolegend) in an annexin V binding buffer for 15 minutes and subjected to flow cytometry analysis. Effector cell-mediated killing activity was calculated from the frequencies of annexin V^+/CFSEt.

CD8^+ T cells = test: IFN-γ ELISpot assay; assay type: cell-based; conditions: splenocytes of vaccinated mice co-cultured with peptide-pulsed BMDCs
Procedure: The 22 splice-neoantigen candidates and a melanoma antigen peptide, tyrosinase-related protein 2 (TRP2) 180-188, serving as a positive control, were synthesized. […] mice were vaccinated twice with the synthesized peptides in the presence of Poly(I:C) as an adjuvant. Then, splenocytes were prepared from the vaccinated mice and co-cultured with peptide-pulsed bone marrow-derived dendritic cells (BMDCs) for 24 hours, and the activation of CD8^+ T cells was evaluated using an IFN-γ ELISpot assay (FIG. 5-1A).
Eight-week-old female C57BL/6N mice were subcutaneously injected with 100 μg of synthesized peptides (Genscript Japan) and 50 μg of poly(I:C) formulated in PBS (5 peptides/mouse) on days 0 and 7. H2-K^b TRP-2180-188 peptide (MBL International, Woburn, MA) was used as a positive control. Mice were sacrificed 12 days after the initial injection, and splenocytes were isolated. As stimulators, bone marrow-derived dendritic cells (BMDCs) were generated as described previously, with some modifications. Briefly, bone marrow cells were isolated from femurs of the 8-week-old female C57BL/6N mice through centrifugation on day 2. Cells were passed through a 70-um cell strainer and seeded in 10-cm petri dishes with RPMI1640 containing 10% FBS, 100 U/mL P/S, 2 mM L-glutamine, 50 μM 2-ME, and 20 ng/ml Gm-csf (Peprotech, Rocky Hill, NJ). Culture was maintained by replacing half of the medium every 2 or 3 days. On day 12, most of the nonadherent cells had acquired typical dendritic morphology, and these cells were pulsed with peptides (2 μg/ml) for 2 hours at 37° C. ELISpot assay was performed using a Mouse IFN-γ ELISpot BASIC kit (Mabtech AB, Nacka Strand, Sweden) as per the manufacturer's instructions. Freshly isolated splenocytes (5× 10^5 cells) were co-incubated with peptide-pulsed BMDCs (4×10^4 cells) overnight at 37° C. under 5% CO2 conditions in an ELISpot PVDF white plate coated with anti-IFN-γ antibody (clone AN18). Then, IFN-γ secretion was detected using a […] (clone R^4-6A2) and a BCIP/NBT-plus substrate. After leaving the plate to dry, the spot number was counted using a dissection microscope. Spot images were acquired using an ImmunoSpot S6 Ultimate Analyzer (Cellular Technology Limited, Cleveland, OH).

[2] = tested on: splenocytes (CD8^+ and CD4^+ T cells); test: Ex vivo splenocyte culture assay (antigen-independent T cell activation); assay type: cell-based, mice; conditions: 24 hours, flow cytometry
tumor cells = conditions: cited from earlier work
[3] = tested on: various murine cancer cell lines (LLC, Pan02, WEHI3, CT26, EG7, B16, MC38); test: RNA-seq analysis of splice-neoantigen producing events in various murine cancer cell lines; assay type: cell-based
Procedure: [FIG. 5-2] Continuation of FIG. 5. D and E: RT-PCR analysis for splice-neoantigen coding forms (splice-NA forms) in MC38 cells treated with 10 µM Compound 1 or vehicle control (0.1% DMSO) for 6 hours. Actb served as a loading control. * represents p<0.05, ** represents p<0.01, and *** represents p<0.001. F: Splice-neoantigen producing rates calculated from RNA-seq data (n=3 biological replicates) are indicated as the APSI (Compound 1-DMSO). All data are shown as the mean±SEM. All experiments were performed at least twice. Statistical significance was determined using unpaired Student's t-test for (B) and (E).
Then, whether the Compound 1-induced splice-neoantigens are shared across cancer type was examined using murine lung carcinoma LLC, pancreatic ductal adenocarcinoma Pan02, leukemia WEHI3, colorectal adenocarcinoma CT26, lymphoma EG7, and skin melanoma B16 cells.
The effects of Compound 2 on RNA splicing events (splicing alterations) producing the aforementioned six splice-neoantigens in various murine cancer cell lines were investigated through RNA-Seq analysis in the same manner as in FIG. 5-2F, except that Compound 1 was replaced with Compound 2 (FIG. 8).

MC38 cells [4] = test: IFN-γ signaling and expression of MHC class I components and PD-L1 in MC38 cells; assay type: cell-based, murine
Excerpt: MHC class I expressed in cancer cells is critical for neoantigen presentation, which is indispensable for CD8^+ T cell-dependent immune surveillance and tumor killing. To investigate whether Compound 1 modulates the neoantigen presentation pathway, first, the effects of Compound 1 on IFN-γ signaling and the expression of MHC class I components, including […] (B2M) and H2-K^b in MC38 cells, were examined because CD8^+ T cell-secreted IFN-γ is a major inducer of MHC class I components. […] In contrast, any changes in the expression of PD-L1 were not detected in host dendritic cells or macrophages. […] However, these alterations were likely not the functional mechanisms through which Compound 1 exerts its antitumor effects (FIGS. 1-2O and 1-2P), as enhanced antitumor effects of Compound 1 were observed when co-administered with αPD-L1.

| Molecule | tumor-killing responses, individual epitopes (MC38 cells [1]) | immunogenicity, IFN-γ ELISpot (CD8^+ T cells) | also measured |
| --- | --- | --- | --- |
| SQPLPNKIGF (listed as Mus musculus) [Nup153, splice-neoantigen peptide derived from altered splicing of Nup153] | significantly triggered the tumor-killing responses | immunogenic |  |
| concanavalin A [concanavalin A (ConA), reference compound] |  |  | CD44^+ and CD69^+ marker expressions in CD8^+ and CD4^+ T cells [2]: promoted |
| SLLLLYLQL (listed as Mus musculus) [Rfx7, splice-neoantigen peptide derived from altered splicing of Rfx7] | significantly triggered the tumor-killing responses | immunogenic |  |
| NS(=O)(=O)c1ccc(S(=O)(=O)Nc2cccc3c(Cl)c[nH]c23)cc1 [Indisulam] |  |  | splicing events and splice-neoantigens in tumor cells (tumor cells): diversely alters splicing events and generates splice-neoantigens |
| SILGFTMV (listed as Mus musculus) [Acbd4, splice-neoantigen peptide derived from altered splicing of Acbd4] | significantly triggered the tumor-killing responses | immunogenic |  |
| CC(C)Oc1ccc(-c2c[nH]cc2CN(C)CCN)cc1 [MS-023] |  |  | splicing events and splice-neoantigens in tumor cells (tumor cells): diversely alters splicing events and generates splice-neoantigens |
| KQQELFVLL (listed as Mus musculus) [Qpct1, splice-neoantigen peptide derived from altered splicing of Qpctl] |  | immunogenic |  |
| MALSNKAYV (listed as Mus musculus) [Kifc1, splice-neoantigen peptide derived from altered splicing of Kifc1] | significantly triggered the tumor-killing responses | immunogenic |  |
| RNRSHIFPL (listed as Mus musculus) [Nf1, splice-neoantigen peptide derived from altered splicing of Nf1] | significantly triggered the tumor-killing responses | immunogenic |  |
| N=C1NC(=O)/C(=C/c2ccc3c(c2)CCO3)S1 [Compound 2] |  |  | splicing alterations of the Kifc1 gene producing peptides containing MALSNKAYV ([3]; MC38 and B16): markedly observed; splicing alterations of the Rfx7 gene producing peptides containing SLLLLYLQL ([3]; all the cancer cell lines): markedly observed; production of splice-neoantigens ([3]; various murine cancer cell lines, RNA-Seq): increases the production of splice-neoantigens |
| Tpr2: melanoma antigen peptide, tyrosinase-related protein 2 (TRP2) 180-188; control antigen (SVYDFFVWL; UniProt P29812 180-188, looked up, fragment) [reference compound] |  |  | tumor-killing activity of antigen-elicited effector cells (MC38 cells [1]; MC38 cells presenting six splice-neoepitopes, 24 hours co-culture, Annexin V^+/CFSE^+): did not exhibit any response |
| B1 |  |  | phosphorylation of STAT1 and STAT3 and expression of B2M protein (MC38 cells [4]): robustly induced |

Source: patent publication US20240423988A1, “Improvement of Tumor Immunogenicity by Means of Splicing-Controlling Compound” (Kyoto University, priority 2021, published 2024)
